Where two headings read alike, the source gives them in different places.
How the values were obtained:
Assay in all cases: Test C pre/postemergence
Type in all cases: in vivo
[1] = system: common ragweed (Ambrosia elatior); conditions: Ambrosia artemisiifolia; for pest or weed control at 125 g/ha: 125 g ai/ha; for pest or weed control at 250 g/ha: 250 g ai/ha
Outline: (§1)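 Pre: seeds planted, sprayed same day. Post: 1- to 4-leaf plants (2–18 cm). Formulation: non-phytotoxic solvent + surfactant. Greenhouse 12–14 d; visual % control vs untreated, 0–100.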

[2] = system: Surinam grass (Brachiaria decumbens); conditions: Urochloa decumbens; for pest or weed control at 125 g/ha: 125 g ai/ha; for pest or weed control at 31 g/ha: 31 g ai/ha; for pest or weed control at 62 g/ha: 62 g ai/ha; for pest or weed control at 250 g/ha: 250 g ai/ha
Outline: as §1

[3] = system: lambsquarters (Chenopodium album); conditions: Chenopodium album; for pest or weed control at 31 g/ha: 31 g ai/ha; for pest or weed control at 62 g/ha: 62 g ai/ha; for pest or weed control at 125 g/ha: 125 g ai/ha; for pest or weed control at 250 g/ha: 250 g ai/ha
Outline: as §1

[4] = system: bermudagrass (Cynodon dactylon); conditions: Cynodon dactylon; for pest or weed control at 31 g/ha: 31 g ai/ha; for pest or weed control at 62 g/ha: 62 g ai/ha; for pest or weed control at 125 g/ha: 125 g ai/ha; for pest or weed control at 125 g/ha / pest or weed control at 250 g/ha: scale 0 to 100; for pest or weed control at 250 g/ha: 250 g ai/ha
Outline: as §1

[5] = system: soybean (Glycine max); conditions: Glycine max; for plant injury at 31 g/ha: 31 g ai/ha; for plant injury at 62 g/ha: 62 g ai/ha; for plant injury at 125 g/ha: 125 g ai/ha; for plant injury at 250 g/ha: 250 g ai/ha
Outline: as §1

[6] = system: giant foxtail (Setaria faberii); conditions: Setaria faberi; for pest or weed control at 125 g/ha: 125 g ai/ha; for pest or weed control at 31 g/ha: 31 g ai/ha; for pest or weed control at 62 g/ha: 62 g ai/ha; for pest or weed control at 250 g/ha: 250 g ai/ha
Outline: as §1

[7] = pre-emergence, Preemergence, scale 0 to 100, read-out: Plant response rating, Ragweed
[8] = post-emergence, Postemergence, scale 0 to 100 (0 no effect, 100 complete control), read-out: Surinam Grass plant response rating
[9] = pre-emergence, Preemergence, scale 0 to 100, 0 no effect, 100 complete control, read-out: Plant response rating, Surinam Grass
[10] = pre-emergence, Preemergence, scale 0 to 100, read-out: Plant response rating, Surinam Grass
[11] = post-emergence, Postemergence, scale 0 to 100 (0 no effect, 100 complete control), read-out: Lambsquarters plant response rating
[12] = pre-emergence, Preemergence, scale 0 to 100, 0 no effect, 100 complete control, read-out: Plant response rating, Lambsquarters
[13] = pre-emergence, Preemergence, scale 0 to 100, read-out: Plant response rating, Lambsquarters
[14] = post-emergence, Postemergence, read-out: Plant response rating, Bermudagrass
[15] = pre-emergence, Preemergence, scale 0 to 100, 0 no effect, 100 complete control, read-out: Plant response rating, Bermudagrass
[16] = pre-emergence, Preemergence, read-out: Plant response rating, Bermudagrass
[17] = post-emergence, Postemergence, scale 0 to 100 (0 no effect, 100 complete control), read-out: Soybean plant response rating
[18] = pre-emergence, Preemergence, scale 0 to 100, 0 no effect, 100 complete control, read-out: Plant response rating, Soybean
[19] = pre-emergence, Preemergence, scale 0 to 100, read-out: Plant response rating, Soybean
[20] = post-emergence, Postemergence, scale 0 to 100 (0 no effect, 100 complete control), read-out: Foxtail, Giant plant response rating
[21] = pre-emergence, Preemergence, scale 0 to 100, 0 no effect, 100 complete control, read-out: Plant response rating, Foxtail, Giant
[22] = pre-emergence, Preemergence, scale 0 to 100, read-out: Plant response rating, Foxtail, Giant

COC(=O)c1nc(C(C)C)nc(N)c1Br [Compound 3]
pest or weed control at 125 g/ha ([1]; post-emergence, Postemergence, scale 0 to 100 (0 no effect, 100 complete control), read-out: Ragweed plant response rating): 80% | pest or weed control at 250 g/ha ([1]; post-emergence, Postemergence, scale 0 to 100, read-out: Plant response rating, Ragweed): 95% | pest or weed control at 31 g/ha ([1]; pre-emergence, Preemergence, 31 g ai/ha, scale 0 to 100, 0 no effect, 100 complete control, read-out: Plant response rating, Ragweed): 0% | pest or weed control at 62 g/ha ([1]; pre-emergence, Preemergence, 62 g ai/ha, scale 0 to 100, 0 no effect, 100 complete control, read-out: Plant response rating, Ragweed): 0% | pest or weed control at 125 g/ha [1, 7]: 0% | pest or weed control at 250 g/ha [1, 7]: 45% | pest or weed control at 125 g/ha [2, 8]: 0% | pest or weed control at 31 g/ha ([2]; post-emergence, Postemergence, read-out: Plant response rating (scale of 0 to 100), Surinam Grass): 0% | pest or weed control at 62 g/ha [2, 8]: 0% | pest or weed control at 250 g/ha ([2]; post-emergence, Postemergence, scale 0 to 100, read-out: Plant response rating, Surinam Grass): 0% | pest or weed control at 31 g/ha [2, 9]: 0% | pest or weed control at 62 g/ha [2, 9]: 0% | pest or weed control at 125 g/ha [2, 10]: 0% | pest or weed control at 250 g/ha [2, 10]: 0% | pest or weed control at 31 g/ha ([3]; post-emergence, Postemergence, read-out: Plant response rating (scale of 0 to 100), Lambsquarters): 75% | pest or weed control at 62 g/ha [3, 11]: 90% | pest or weed control at 125 g/ha [3, 11]: 90% | pest or weed control at 250 g/ha ([3]; post-emergence, Postemergence, scale 0 to 100, read-out: Plant response rating, Lambsquarters): 100% | pest or weed control at 31 g/ha [3, 12]: 0% | pest or weed control at 62 g/ha [3, 12]: 0% | pest or weed control at 125 g/ha [3, 13]: 0% | pest or weed control at 250 g/ha [3, 13]: 80% | pest or weed control at 31 g/ha ([4]; post-emergence, Postemergence, read-out: Plant response rating (scale of 0 to 100), Bermudagrass): 0% | pest or weed control at 62 g/ha ([4]; post-emergence, Postemergence, scale 0 to 100 (0 no effect, 100 complete control), read-out: Bermudagrass plant response rating): 0% | pest or weed control at 125 g/ha [4, 14]: 0% | pest or weed control at 250 g/ha [4, 14]: 45% | pest or weed control at 31 g/ha [4, 15]: 0% | pest or weed control at 62 g/ha [4, 15]: 0% | pest or weed control at 125 g/ha [4, 16]: 0% | pest or weed control at 250 g/ha [4, 16]: 0% | plant injury at 31 g/ha ([5]; post-emergence, Postemergence, read-out: Plant response rating (scale of 0 to 100), Soybean): 60% | plant injury at 62 g/ha [5, 17]: 75% | plant injury at 125 g/ha [5, 17]: 90% | plant injury at 250 g/ha ([5]; post-emergence, Postemergence, scale 0 to 100, read-out: Plant response rating, Soybean): 95% | plant injury at 31 g/ha [5, 18]: 0% | plant injury at 62 g/ha [5, 18]: 0% | plant injury at 125 g/ha [5, 19]: 15% | plant injury at 250 g/ha [5, 19]: 20% | pest or weed control at 125 g/ha [6, 20]: 0% | pest or weed control at 31 g/ha ([6]; post-emergence, Postemergence, read-out: Plant response rating (scale of 0 to 100), Foxtail, Giant): 0% | pest or weed control at 62 g/ha [6, 20]: 0% | pest or weed control at 250 g/ha ([6]; post-emergence, Postemergence, scale 0 to 100, read-out: Plant response rating, Foxtail, Giant): 0% | pest or weed control at 31 g/ha [6, 21]: 0% | pest or weed control at 62 g/ha [6, 21]: 0% | pest or weed control at 125 g/ha [6, 22]: 0% | pest or weed control at 250 g/ha [6, 22]: 0%
